Columns and labels:
Assay in all cases: multi-sample expression analysis, band intensity
Type in all cases: in vivo
Conditions in all cases: Pooled
band b1i0_53.0 = test system: band b1i0_53.0
Source text: (§1) To practice the invention, one skilled in the art obtains a source of biological samples, as well as expression information about the biological samples, i.e., expression information relative to one or more genes or polypeptides encoded therein. Data is collected for a particular phenotype appearing within a given population under study, whereby expression of that phenotype is to be determined within the biological sample under study. The phenotype is correlated to a specific genotype, which is then represented as a band with a given intentity, thus indicative of gene expression levels, and is then compared to control samples. Alternatively, the response of a gene to dosage with one or more drugs is determined by band intensity. The standard deviation from the mean (StdDev) is calculated for the control samples, and is fit to functional form in the following equation: […]
(§2) A multi-sample expression analysis was run using the program described in Example 1. For each drug run, only runs for genes producing bands with a p-value<10^−5 in at least 2 of the following 3 comparisons were selected: low dose versus vehicle, high dose versus vehicle and low dose versus high dose. […] Since clusters found using all 13K bands included some of the best 2K bands, it was concluded that no essential signal was lost (see FIGS. 3 and 4). […] A comparison using the same analytic tests on only the best 2K bands. It can be seen that the Chi Square metric provides a better distinction between low and high doses than the correlation metric, which is not able to distinguish between the low dose and the high dose (see FIG. 6). The low-dose/high dose statistical variation is more pronounced when only the best 2K bands are selected.

band b1i0_54.5 = test system: band b1i0_54.5
Source text: as §1, §2

band b1i0_62.5 = test system: band b1i0_62.5
Source text: as §1, §2

band b1i0_63.7 = test system: band b1i0_63.7
Source text: as §1, §2

band b1i0_60.7 = test system: band b1i0_60.7
Source text: as §1, §2

band b1i0_57.4 = test system: band b1i0_57.4
Source text: as §1, §2

band b1i0_69.4 = test system: band b1i0_69.4
Source text: as §1, §2

band b1i0_51.7 = test system: band b1i0_51.7
Source text: as §1, §2

## CC(=O)[C@@]1(O)CC[C@H]2[C@@H]3C=C(Cl)C4=CC(=O)[C@@H]5C[C@@H]5[C@]4(C)[C@H]3CC[C@@]21C [Cyproterone]
Band b1i0_53.0; High dose, 1d
  band intensity b1i0_53.0: 93.39
Band b1i0_53.0; High dose, 3d
  band intensity b1i0_53.0: 99.72
Band b1i0_53.0; High dose, 7d
  band intensity b1i0_53.0: 99.01
Band b1i0_53.0; High dose, 14d
  band intensity b1i0_53.0: 40.97
Band b1i0_53.0; Low dose, 1d
  band intensity b1i0_53.0: 111.6
Band b1i0_53.0; Low dose, 3d
  band intensity b1i0_53.0: 99.85
Band b1i0_53.0; Low dose, 7d
  band intensity b1i0_53.0: 99.01
Band b1i0_54.5; High dose, 1d
  band intensity b1i0_54.5: 98.48
Band b1i0_54.5; High dose, 3d
  band intensity b1i0_54.5: 80.83
Band b1i0_54.5; High dose, 7d
  band intensity b1i0_54.5: 81.21
Band b1i0_54.5; High dose, 14d
  band intensity b1i0_54.5: 69.78
Band b1i0_54.5; Low dose, 1d
  band intensity b1i0_54.5: 94.41
Band b1i0_54.5; Low dose, 3d
  band intensity b1i0_54.5: 93.73
Band b1i0_54.5; Low dose, 7d
  band intensity b1i0_54.5: 98.2
Band b1i0_62.5; High dose, 1d
  band intensity b1i0_62.5: 49.19
Band b1i0_62.5; High dose, 3d
  band intensity b1i0_62.5: 64.93
Band b1i0_62.5; High dose, 7d
  band intensity b1i0_62.5: 71.82
Band b1i0_62.5; High dose, 14d
  band intensity b1i0_62.5: 148.3
Band b1i0_62.5; Low dose, 1d
  band intensity b1i0_62.5: 62.41
Band b1i0_62.5; Low dose, 3d
  band intensity b1i0_62.5: 59.37
Band b1i0_62.5; Low dose, 7d
  band intensity b1i0_62.5: 70.85
Band b1i0_63.7; High dose, 1d
  band intensity b1i0_63.7: 51.36
Band b1i0_63.7; High dose, 3d
  band intensity b1i0_63.7: 111.8
Band b1i0_63.7; High dose, 7d
  band intensity b1i0_63.7: 154.7
Band b1i0_63.7; High dose, 14d
  band intensity b1i0_63.7: 18.52
Band b1i0_63.7; Low dose, 1d
  band intensity b1i0_63.7: 68.2
Band b1i0_63.7; Low dose, 3d
  band intensity b1i0_63.7: 110.4
Band b1i0_63.7; Low dose, 7d
  band intensity b1i0_63.7: 146
Band b1i0_60.7; High dose, 1d
  band intensity b1i0_60.7: 53.9
Band b1i0_60.7; High dose, 3d
  band intensity b1i0_60.7: 46.42
Band b1i0_60.7; High dose, 7d
  band intensity b1i0_60.7: 73.61
Band b1i0_60.7; High dose, 14d
  band intensity b1i0_60.7: 57.48
Band b1i0_60.7; Low dose, 1d
  band intensity b1i0_60.7: 76.15
Band b1i0_60.7; Low dose, 3d
  band intensity b1i0_60.7: 72.42
Band b1i0_60.7; Low dose, 7d
  band intensity b1i0_60.7: 80.22
Band b1i0_57.4; High dose, 1d
  band intensity b1i0_57.4: 1105
Band b1i0_57.4; High dose, 3d
  band intensity b1i0_57.4: 1021
Band b1i0_57.4; High dose, 7d
  band intensity b1i0_57.4: 1105
Band b1i0_57.4; High dose, 14d
  band intensity b1i0_57.4: 775.5
Band b1i0_57.4; Low dose, 1d
  band intensity b1i0_57.4: 1285
Band b1i0_57.4; Low dose, 3d
  band intensity b1i0_57.4: 1338
Band b1i0_57.4; Low dose, 7d
  band intensity b1i0_57.4: 1437
Band b1i0_69.4; High dose, 1d
  band intensity b1i0_69.4: 254.9
Band b1i0_69.4; High dose, 3d
  band intensity b1i0_69.4: 250.7
Band b1i0_69.4; High dose, 7d
  band intensity b1i0_69.4: 317.9
Band b1i0_69.4; High dose, 14d
  band intensity b1i0_69.4: 528.3
Band b1i0_69.4; Low dose, 1d
  band intensity b1i0_69.4: 243.2
Band b1i0_69.4; Low dose, 3d
  band intensity b1i0_69.4: 270.7
Band b1i0_69.4; Low dose, 7d
  band intensity b1i0_69.4: 326.3
Band b1i0_51.7; High dose, 1d
  band intensity b1i0_51.7: 35.07
Band b1i0_51.7; High dose, 3d
  band intensity b1i0_51.7: 32.34
Band b1i0_51.7; High dose, 7d
  band intensity b1i0_51.7: 22.63
Band b1i0_51.7; High dose, 14d
  band intensity b1i0_51.7: 19.9
Band b1i0_51.7; Low dose, 1d
  band intensity b1i0_51.7: 19.27
Band b1i0_51.7; Low dose, 3d
  band intensity b1i0_51.7: 21.87
Band b1i0_51.7; Low dose, 7d
  band intensity b1i0_51.7: 12.77

## Nc1ccc(Cc2ccc(N)cc2)cc1 [Methylenedianiline]
Band b1i0_53.0; High dose, 1d
  band intensity b1i0_53.0: 101.1
Band b1i0_53.0; High dose, 3d
  band intensity b1i0_53.0: 98.11
Band b1i0_53.0; High dose, 7d
  band intensity b1i0_53.0: 113.8
Band b1i0_53.0; High dose, 14d
  band intensity b1i0_53.0: 60.92
Band b1i0_53.0; Low dose, 1d
  band intensity b1i0_53.0: 103.4
Band b1i0_53.0; Low dose, 3d
  band intensity b1i0_53.0: 101.1
Band b1i0_53.0; Low dose, 7d
  band intensity b1i0_53.0: 111.5
Band b1i0_53.0; Low dose, 14d
  band intensity b1i0_53.0: 55.87
Band b1i0_54.5; High dose, 1d
  band intensity b1i0_54.5: 104.9
Band b1i0_54.5; High dose, 3d
  band intensity b1i0_54.5: 106
Band b1i0_54.5; High dose, 7d
  band intensity b1i0_54.5: 82.18
Band b1i0_54.5; High dose, 14d
  band intensity b1i0_54.5: 51.09
Band b1i0_54.5; Low dose, 1d
  band intensity b1i0_54.5: 123.7
Band b1i0_54.5; Low dose, 3d
  band intensity b1i0_54.5: 111.4
Band b1i0_54.5; Low dose, 7d
  band intensity b1i0_54.5: 86.49
Band b1i0_54.5; Low dose, 14d
  band intensity b1i0_54.5: 62.55
Band b1i0_62.5; High dose, 1d
  band intensity b1i0_62.5: 59.42
Band b1i0_62.5; High dose, 3d
  band intensity b1i0_62.5: 70.64
Band b1i0_62.5; High dose, 7d
  band intensity b1i0_62.5: 71.55
Band b1i0_62.5; High dose, 14d
  band intensity b1i0_62.5: 185.7
Band b1i0_62.5; Low dose, 1d
  band intensity b1i0_62.5: 63.43
Band b1i0_62.5; Low dose, 3d
  band intensity b1i0_62.5: 69.92
Band b1i0_62.5; Low dose, 7d
  band intensity b1i0_62.5: 86.01
Band b1i0_62.5; Low dose, 14d
  band intensity b1i0_62.5: 207.6
Band b1i0_63.7; High dose, 1d
  band intensity b1i0_63.7: 85.1
Band b1i0_63.7; High dose, 3d
  band intensity b1i0_63.7: 153.8
Band b1i0_63.7; High dose, 7d
  band intensity b1i0_63.7: 144.3
Band b1i0_63.7; High dose, 14d
  band intensity b1i0_63.7: 2.073
Band b1i0_63.7; Low dose, 1d
  band intensity b1i0_63.7: 24.89
Band b1i0_63.7; Low dose, 3d
  band intensity b1i0_63.7: 84.1
Band b1i0_63.7; Low dose, 7d
  band intensity b1i0_63.7: 287.2
Band b1i0_63.7; Low dose, 14d
  band intensity b1i0_63.7: 0.3527
Band b1i0_60.7; High dose, 1d
  band intensity b1i0_60.7: 67.13
Band b1i0_60.7; High dose, 3d
  band intensity b1i0_60.7: 85.72
Band b1i0_60.7; High dose, 7d
  band intensity b1i0_60.7: 82.44
Band b1i0_60.7; High dose, 14d
  band intensity b1i0_60.7: 158.3
Band b1i0_60.7; Low dose, 1d
  band intensity b1i0_60.7: 66.66
Band b1i0_60.7; Low dose, 3d
  band intensity b1i0_60.7: 78.99
Band b1i0_60.7; Low dose, 7d
  band intensity b1i0_60.7: 79.32
Band b1i0_60.7; Low dose, 14d
  band intensity b1i0_60.7: 139.6
Band b1i0_57.4; High dose, 1d
  band intensity b1i0_57.4: 1230
Band b1i0_57.4; High dose, 3d
  band intensity b1i0_57.4: 1407
Band b1i0_57.4; High dose, 7d
  band intensity b1i0_57.4: 1184
Band b1i0_57.4; High dose, 14d
  band intensity b1i0_57.4: 455.9
Band b1i0_57.4; Low dose, 1d
  band intensity b1i0_57.4: 1376
Band b1i0_57.4; Low dose, 3d
  band intensity b1i0_57.4: 1433
Band b1i0_57.4; Low dose, 7d
  band intensity b1i0_57.4: 1280
Band b1i0_57.4; Low dose, 14d
  band intensity b1i0_57.4: 789.2
Band b1i0_69.4; High dose, 1d
  band intensity b1i0_69.4: 262.2
Band b1i0_69.4; High dose, 3d
  band intensity b1i0_69.4: 329.9
Band b1i0_69.4; High dose, 7d
  band intensity b1i0_69.4: 290.2061
Band b1i0_69.4; High dose, 14d
  band intensity b1i0_69.4: 512.9
Band b1i0_69.4; Low dose, 1d
  band intensity b1i0_69.4: 349.4
Band b1i0_69.4; Low dose, 3d
  band intensity b1i0_69.4: 349.3
Band b1i0_69.4; Low dose, 7d
  band intensity b1i0_69.4: 303.1
Band b1i0_69.4; Low dose, 14d
  band intensity b1i0_69.4: 714.8
Band b1i0_51.7; High dose, 1d
  band intensity b1i0_51.7: 23.55
Band b1i0_51.7; High dose, 3d
  band intensity b1i0_51.7: 27.88
Band b1i0_51.7; High dose, 7d
  band intensity b1i0_51.7: 23.35
Band b1i0_51.7; High dose, 14d
  band intensity b1i0_51.7: 33.18
Band b1i0_51.7; Low dose, 1d
  band intensity b1i0_51.7: 22.28
Band b1i0_51.7; Low dose, 3d
  band intensity b1i0_51.7: 27.01
Band b1i0_51.7; Low dose, 7d
  band intensity b1i0_51.7: 21.37
Band b1i0_51.7; Low dose, 14d
  band intensity b1i0_51.7: 71.33

From patent US20030105595A1, “Chi square tests for gene expression” (priority 2001, published 2003)
